Data: ChEMBL document CHEMBL1201862, “PubChem BioAssay data set” (2004)
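Protocol summary: plate cells (96-well), add compound at 5 concentrations, incubate 48 h, interpolate endpoints linearly. GI50: concentration for 50% inhibition of growth.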 Activity calls are given as the source filed them. Rule as the data show it: active = GI50 up to about 1.1 µM and inactive = higher.

What was measured:
Assay in all cases: inhibition of tumour cell growth, NCI panel, 48 h
KM12 = test system: KM12
NCI-H460 = test system: NCI-H460
RXF 393 = test system: RXF 393
HCT-116 = test system: HCT-116
SNB-19 = test system: SNB-19
UACC-257 = test system: UACC-257
NCI-H23 = test system: NCI-H23
M14 = test system: M14
SN12C = test system: SN12C
SF-539 = test system: SF-539
EKVX = test system: EKVX
SK-MEL-28 = test system: SK-MEL-28
HCT-15 = test system: HCT-15
OVCAR-3 = test system: OVCAR-3
RPMI-8226 = test system: RPMI-8226
MOLT-4 = test system: MOLT-4
SR = test system: SR
CCRF-CEM = test system: CCRF-CEM
HL-60 = test system: HL-60

Compound	GI50 (KM12)	GI50 (NCI-H460)	GI50 (RXF 393)	GI50 (HCT-116)	GI50 (SNB-19)	GI50 (UACC-257)	GI50 (NCI-H23)	GI50 (M14)	GI50 (SN12C)	GI50 (SF-539)	GI50 (EKVX)	GI50 (SK-MEL-28)	GI50 (HCT-15) [µM]	GI50 (OVCAR-3)	GI50 (RPMI-8226)	GI50 (MOLT-4)	GI50 (SR)	GI50 (CCRF-CEM)	GI50 (HL-60)
CCOC(=O)[C@H]1Nc2ccc(O)cc2C2c3ccccc3CC21 (stereo partly drawn)	> 100 µM (inactive)	> 100 µM (inactive)	17.7 µM (inactive)	68.1 µM (inactive)	> 100 µM (inactive)	37.7 µM (inactive)	53.7 µM (inactive)	59.7 µM (inactive)	87.1 µM (inactive)	> 100 µM (inactive)	42.3 µM (inactive)	34.8 µM (inactive)	72.8	35.2 µM (inactive)	43.2 µM (inactive)	33 µM (inactive)	–	–	–
COc1nc2c(c(O)c(C)c(=O)n2OC2OCC(OC(C)=O)C(OC(C)=O)C2OC(C)=O)c(=O)n1C (stereo not drawn)	> 100 µM (inactive)	> 100 µM (inactive)	> 100 µM (inactive)	> 100 µM (inactive)	> 100 µM (inactive)	–	> 100 µM (inactive)	> 100 µM (inactive)	> 100 µM (inactive)	60.4 µM (inactive)	> 100 µM (inactive)	> 100 µM (inactive)	> 100	–	–	> 100 µM (inactive)	> 100 µM (inactive)	> 100 µM (inactive)	–
Nc1nc2c(ncn2CCCC(c2ccccc2)P(=O)(O)O)c(=O)[nH]1 (stereo not drawn)	> 100 µM (inactive)	> 100 µM (inactive)	–	> 100 µM (inactive)	> 100 µM (inactive)	> 100 µM (inactive)	> 100 µM (inactive)	> 100 µM (inactive)	> 100 µM (inactive)	> 100 µM (inactive)	> 100 µM (inactive)	> 100 µM (inactive)	> 100	> 100 µM (inactive)	> 100 µM (inactive)	> 100 µM (inactive)	–	> 100 µM (inactive)	> 100 µM (inactive)
C[C@@H]1OC(=O)N2CCCC(=C3SCCCS3)C12 (stereo partly drawn)	60.3 µM (inactive)	> 100 µM (inactive)	68.4 µM (inactive)	44.4 µM (inactive)	> 100 µM (inactive)	37.1 µM (inactive)	64 µM (inactive)	48.9 µM (inactive)	> 100 µM (inactive)	> 100 µM (inactive)	> 100 µM (inactive)	> 100 µM (inactive)	> 100	> 100 µM (inactive)	36.9 µM (inactive)	33.3 µM (inactive)	–	46.6 µM (inactive)	–
NC1=NCC(c2ccccn2)C1c1ccc(F)cc1 (stereo not drawn)	> 100 µM (inactive)	> 100 µM (inactive)	> 100 µM (inactive)	> 100 µM (inactive)	> 100 µM (inactive)	> 100 µM (inactive)	> 100 µM (inactive)	> 100 µM (inactive)	> 100 µM (inactive)	> 100 µM (inactive)	> 100 µM (inactive)	> 100 µM (inactive)	–	> 100 µM (inactive)	> 100 µM (inactive)	> 100 µM (inactive)	> 100 µM (inactive)	> 100 µM (inactive)	–
CCCC(S(=O)(=O)c1ccccc1)S(=O)(=O)c1ccccc1	> 100 µM (inactive)	> 100 µM (inactive)	> 100 µM (inactive)	> 100 µM (inactive)	–	> 100 µM (inactive)	> 100 µM (inactive)	> 100 µM (inactive)	–	> 100 µM (inactive)	> 100 µM (inactive)	> 100 µM (inactive)	> 100	> 100 µM (inactive)	> 100 µM (inactive)	> 100 µM (inactive)	–	> 100 µM (inactive)	> 100 µM (inactive)
